Active and inactive are the calls of the source. No cut-off for these calls is given here.
Legend:
[1] = molecular target: Receptor-interacting serine/threonine-protein kinase 2 (Homo sapiens) (UniProt O43353); assay: Inhibition of wild type recombinant human His6-tagged RIPK2 at 0.5 uM using RS repeat peptide substrate incubated for 2 hrs by ADP-Glo assay
[2] = molecular target: Receptor-interacting serine/threonine-protein kinase 2 (Homo sapiens) (UniProt O43353); assay: Inhibition of wild type recombinant human His6-tagged RIPK2 at 5 uM using RS repeat peptide substrate incubated for 2 hrs by ADP-Glo assay
[3] = system: Receptor-interacting serine/threonine-protein kinase 2 (Homo sapiens), O43353 [R171C]; assay: Inhibition of recombinant human His6-tagged RIPK2 R171C mutant at 5 uM using RS repeat peptide substrate incubated for 2 hrs by ADP-Glo assay
Sequence of Receptor-interacting serine/threonine-protein kinase 2 (Homo sapiens), O43353 [R171C] (O43353 whole entry R171C): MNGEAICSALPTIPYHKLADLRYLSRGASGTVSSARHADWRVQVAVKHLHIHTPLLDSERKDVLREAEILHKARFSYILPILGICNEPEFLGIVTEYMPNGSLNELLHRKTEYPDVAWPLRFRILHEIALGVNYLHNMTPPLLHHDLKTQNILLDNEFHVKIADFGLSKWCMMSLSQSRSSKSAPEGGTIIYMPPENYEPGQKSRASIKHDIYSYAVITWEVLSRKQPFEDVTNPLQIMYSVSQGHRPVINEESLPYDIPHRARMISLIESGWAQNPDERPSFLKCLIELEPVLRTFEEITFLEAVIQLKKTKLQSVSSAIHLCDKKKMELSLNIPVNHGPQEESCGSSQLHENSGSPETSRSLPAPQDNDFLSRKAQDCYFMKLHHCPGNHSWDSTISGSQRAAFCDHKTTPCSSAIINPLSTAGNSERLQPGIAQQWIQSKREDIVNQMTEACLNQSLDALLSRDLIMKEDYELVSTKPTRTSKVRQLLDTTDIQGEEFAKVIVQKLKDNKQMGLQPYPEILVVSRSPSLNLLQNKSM

[4] = organism: Homo sapiens; assay: Selectivity index, ratio of IC50 for recombinant human His6-tagged RIPK2 R171C mutant to IC50 for wild type recombinant human His6-tagged RIPK2
[5] = molecular target: Vascular endothelial growth factor receptor 2 (Homo sapiens) (UniProt P35968); assay: Inhibition of N-terminal GST tagged recombinant human KDR (789 to end residues) expressed in baculovirus infected Sf9 cells at 20 uM using poly-E4Y1 substrate incubated for 2 hrs by ADP-Glo assay
Sequence of Vascular endothelial growth factor receptor 2 (Homo sapiens) (P35968 whole entry): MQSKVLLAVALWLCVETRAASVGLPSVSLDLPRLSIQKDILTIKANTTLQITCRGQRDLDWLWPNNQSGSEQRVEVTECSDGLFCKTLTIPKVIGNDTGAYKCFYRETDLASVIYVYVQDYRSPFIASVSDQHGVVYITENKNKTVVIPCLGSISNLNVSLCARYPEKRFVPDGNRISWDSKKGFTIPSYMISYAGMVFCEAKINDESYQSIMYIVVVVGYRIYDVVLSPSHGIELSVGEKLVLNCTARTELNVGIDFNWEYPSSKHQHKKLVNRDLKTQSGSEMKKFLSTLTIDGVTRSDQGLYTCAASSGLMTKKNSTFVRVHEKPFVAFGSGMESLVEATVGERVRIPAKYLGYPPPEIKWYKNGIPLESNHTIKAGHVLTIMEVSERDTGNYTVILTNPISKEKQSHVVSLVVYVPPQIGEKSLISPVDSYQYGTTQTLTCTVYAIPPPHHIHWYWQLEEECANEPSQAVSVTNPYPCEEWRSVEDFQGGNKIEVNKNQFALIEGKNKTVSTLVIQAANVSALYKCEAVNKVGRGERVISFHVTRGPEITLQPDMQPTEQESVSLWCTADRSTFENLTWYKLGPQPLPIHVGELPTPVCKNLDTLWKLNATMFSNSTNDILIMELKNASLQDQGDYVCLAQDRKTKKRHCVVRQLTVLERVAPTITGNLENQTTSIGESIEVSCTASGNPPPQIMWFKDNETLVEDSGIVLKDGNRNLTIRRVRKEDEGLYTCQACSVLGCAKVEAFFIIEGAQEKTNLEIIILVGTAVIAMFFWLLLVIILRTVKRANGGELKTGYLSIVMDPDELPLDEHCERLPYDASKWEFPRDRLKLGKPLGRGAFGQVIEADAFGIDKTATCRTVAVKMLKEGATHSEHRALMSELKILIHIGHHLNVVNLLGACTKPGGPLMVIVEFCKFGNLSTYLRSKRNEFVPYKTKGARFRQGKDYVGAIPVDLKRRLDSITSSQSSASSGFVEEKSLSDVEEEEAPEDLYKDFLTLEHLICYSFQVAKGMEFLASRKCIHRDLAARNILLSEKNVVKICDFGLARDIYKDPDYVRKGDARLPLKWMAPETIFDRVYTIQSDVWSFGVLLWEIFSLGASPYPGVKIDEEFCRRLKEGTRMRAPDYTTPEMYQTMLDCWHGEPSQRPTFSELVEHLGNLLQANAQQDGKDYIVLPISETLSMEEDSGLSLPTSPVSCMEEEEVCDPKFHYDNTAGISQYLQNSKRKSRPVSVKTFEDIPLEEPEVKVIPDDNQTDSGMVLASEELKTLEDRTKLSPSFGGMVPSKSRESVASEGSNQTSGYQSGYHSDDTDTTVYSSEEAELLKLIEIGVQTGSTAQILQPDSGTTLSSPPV

[6] = organism: Homo sapiens; assay: Selectivity index, ratio of inhibition of N-terminal GST tagged recombinant human KDR (789 to end residues) expressed in baculovirus infected Sf9 cells to inhibition of wild type recombinant human His6-tagged RIPK2
[7] = molecular target: Receptor-interacting serine/threonine-protein kinase 2 (Homo sapiens) (UniProt O43353); assay: Inhibition of wild type recombinant human His6-tagged RIPK2 at 10 uM using RS repeat peptide substrate incubated for 2 hrs by ADP-Glo assay

Sequence of Receptor-interacting serine/threonine-protein kinase 2 (Homo sapiens) (O43353 whole entry): as the sequence (O43353 whole entry R171C) above, with C171R counted along it

SMILES: CNC(=O)c1cc(Oc2ccc(NC(=O)Nc3cccc(CCN)c3)c(F)c2)ccn1
- inhibition [1]: 12%

SMILES: CNC(=O)c1cc(Oc2ccc(NC(=O)Nc3ccc(SCC(=O)O)c(F)c3)c(F)c2)ccn1
- inhibition [2]: 70%
- inhibition [3]: 64%
- Ratio IC50 [4]: 2
- inhibition [5]: 35.8%
- Selectivity Index [6]: > 10

SMILES: CNC(=O)c1cc(Oc2ccc(NC(=O)Nc3cccc(C(C)(C)C(=O)O)c3)c(F)c2)ccn1
- inhibition [2]: 47%

SMILES: CNC(=O)c1cc(Oc2ccc(NC(=O)Nc3ccc(C(=O)O)cc3)c(F)c2)ccn1
- inhibition [1]: inactive

SMILES: CNC(=O)c1cc(Oc2ccc(NC(=O)Nc3ccc(N4CC(=O)NS4(=O)=O)c(C)c3)c(F)c2)ccn1
- inhibition [1]: 1%

SMILES: CNC(=O)c1cc(Oc2ccc(NC(=O)Nc3ccc(SCC(=O)O)cc3)c(F)c2)ccn1
- inhibition [2]: 27%
- inhibition [3]: 17%

SMILES: CNC(=O)c1cc(Oc2ccc(NC(=O)Nc3ccc(CC(=O)O)cc3)c(F)c2)ccn1
- inhibition [2]: 18%

SMILES: CNC(=O)c1cc(Oc2ccc(NC(=O)Nc3cccc(SCC(=O)O)c3)c(F)c2)ccn1
- inhibition [2]: 25%

SMILES: CNC(=O)c1cc(Oc2ccc(NC(=O)Nc3cccc(CC(=O)O)c3)c(F)c2)ccn1
- inhibition [2]: inactive
- inhibition [3]: inactive

SMILES: CNC(=O)c1cc(Oc2ccc(NC(=O)Nc3ccc(OCCS(C)(=O)=O)c(C)c3)c(F)c2)ccn1
- inhibition [1]: 35%

SMILES: CNC(=O)c1cc(Oc2ccc(NC(=O)Nc3cccc(C(=O)O)c3)c(F)c2)ccn1
- inhibition [1]: inactive

SMILES: CNC(=O)c1cc(Oc2ccc(NC(=O)Nc3cccc(C(C)(C)N)c3)c(F)c2)ccn1
- inhibition [1]: 32%

SMILES: Nc1ccc(SCC(=O)O)c(F)c1
- inhibition [7]: 10%

Source: ChEMBL document CHEMBL4184261, “Activation loop targeting strategy for design of receptor-interacting protein kinase 2 (RIPK2) inhibitors” (Bioorg Med Chem Lett, 2018)
